{"source": "patent US8367716B2", "about": "(priority 2003, dated 2013)", "key": {"HeLa cells": {"system": "HeLa cells", "assay": "HeLa cell toxicity (cell morphology)", "format": "cell-based, human", "method": "(§1) Safety and toxicity assays. For HeLa cell toxicity studies, various concentrations (0-, 25-, 50-, 100-, 200- and 400 μM) of c-di-GMP were tested in separate wells of chamber slides containing HeLa cells prepared as described above in complete media (in the absence of bacteria). HeLa cell morphology was examined microscopically after 12-, 24- and 48 h incubation. The potential lethality of c-di-GMP administered to mice was also examined. In these studies, adult female CD-1 mice and 5 day old infant mice were inoculated orally with 50 μL of 200 μM c-di-GMP and examined 24 h after c-di-GMP treatment."}, "S. aureus DK825 [1]": {"system": "S. aureus DK825", "assay": "Effect on growth rate and cell count of S. aureus", "format": "cell-based, Staphylococcus aureus", "method": "Effect on growth rate of S. aureus. S. aureus DK825 was subcultured from glycerol stocks onto a blood agar plate and incubated at 37° C. for 18 h. A single colony was then inoculated into 5 ml TSB broth (supplemented with 0.25% glucose) and incubated at 37° C. for 24 h with shaking at 250 rpm. From a 10^−3 dilution of the overnight culture a 100 μl aliquot was inoculated into tubes containing 5 ml TSB broth resulting in an initial cell count of […] (confirmed by plating). For “treated” samples, an appropriate aliquot of c-di-GMP was added to give 200 μM c-di-GMP (final concentration). As a negative “untreated” control, tubes containing TSB and a similar volume of 0.9% NaCl were included in the studies. At time zero, 50 μl from each sample was plated on blood agar plates to determine the initial cfu/ml. […]"}, "[2]": {"conditions": "0.2 N NaOH, ~pH 13.5, 37° C. for 24 h; Ross et al.; cited from earlier work"}, "V. cholerae N16961": {"system": "V. cholerae N16961", "assay": "Crystal violet quantitative biofilm assay in glass test tubes", "format": "cell-based, Vibrio cholerae"}, "Salmonela enteritidis": {"system": "Salmonela enteritidis", "assay": "Biofilm formation in Salmonela enteritidis", "format": "cell-based"}, "S. aureus DK825 [3]": {"system": "S. aureus DK825", "assay": "Effect on 24 h pre-formed biofilms", "format": "cell-based, Staphylococcus aureus", "conditions": "200 μM added to 24 h pre-formed biofilm, further 24 h", "method": "Effect of c-di-GMP on S. aureus pre-formed biofilms. S. aureus DK825 was subcultured from glycerol stocks onto blood agar plate and incubated at 37° C. statically. A single colony was inoculated into 5 ml TSB broth (containing 0.25% glucose) and incubated at 37° C. overnight with shaking at 250 rpm until the culture reached OD660˜3.0. Following incubation the culture was diluted to 1:250 with fresh TSB broth and a 200 μl of the diluted culture was transferred into each well of microtitre plate and the plate containing wells with S. aureus cultures was incubated statically at 37° C. for 24 h. After 24 h, an appropriate volume of c-di-GMP was added to give a final concentration of 200 μM and represented the “treated” sample. As an “untreated” control, an identical volume of 0.9% NaCl was added to independent wells. The plates were then incubated statically at 37° C. for an additional 24 h. Following incubation the culture was discarded and microtitre plate was washed twice with 1X PBS. An equal volume (260 μl) of 1X PBS was added to each well for washing. The plates were then kept for drying on paper towel ˜30 min. A 260 μl of 0.1% crystal violet was added to each well to stain the cells in the biofilm and the plates were incubated at room temperature for 30 min. […] To quantitatively assay the amount of biofilm, the OD570 was measured by a spectrophotometer (SpectraMAX 250, Molecular Devices). […]"}, "CD-1 mice": {"system": "CD-1 mice", "assay": "Lethality in mice after oral c-di-GMP", "format": "in vivo", "conditions": "50 μL of 200 μM, orally, examined 24 h after treatment", "method": "as §1"}}}
{"smiles": "Nc1nc2c(ncn2C2OC3COP(=O)(O)OC4C(COP(=O)(O)OC3C2O)OC(n2cnc3c(=O)[nH]c(N)nc32)C4O)c(=O)[nH]1", "note": "(stereo not drawn) [c-di-GMP, 3′,5′-cyclic diguanylic acid]", "values": [{"measurement": "expression of enterotoxin 1, Down-regulated", "setting": "S. aureus strain DK825", "value": 0.35, "unit": "fold"}, {"measurement": "expression of enterotoxin A, Down-regulated", "setting": "S. aureus strain DK825", "value": 0.54, "unit": "fold"}, {"measurement": "expression of toxic shock syndrome toxin, Down-regulated", "setting": "S. aureus strain DK825", "value": 0.45, "unit": "fold"}, {"measurement": "expression of PBP-2, Up-regulated", "setting": "S. aureus strain DK825; 200 μM vs untreated control", "value": 2.0, "unit": "fold"}, {"measurement": "expression of PBP-4, Up-regulated", "setting": "S. aureus strain DK825; 200 μM vs untreated control", "value": 1.7, "unit": "fold"}, {"measurement": "expression of agrA (quorum sensing), Up-regulated", "setting": "S. aureus strain DK825; 200 μM vs untreated control", "value": 5.4, "unit": "fold"}, {"measurement": "expression of agrB (quorum sensing), Up-regulated", "setting": "S. aureus strain DK825; 200 μM vs untreated control", "value": 5.8, "unit": "fold"}, {"measurement": "expression of agrC (quorum sensing), Up-regulated", "setting": "S. aureus strain DK825; 200 μM vs untreated control", "value": 2.0, "unit": "fold"}, {"measurement": "expression of agrD (quorum sensing), Up-regulated", "setting": "S. aureus strain DK825; 200 μM vs untreated control", "value": 2.2, "unit": "fold"}, {"measurement": "expression of clfA (clumping factor), Down-regulated", "setting": "S. aureus strain DK825; 200 μM vs untreated control", "value": 0.54, "unit": "fold"}, {"measurement": "expression of clfB (clumping factor), Down-regulated", "setting": "S. aureus strain DK825; 200 μM vs untreated control", "value": 0.43, "unit": "fold"}, {"measurement": "expression of collagen adhesin, Down-regulated", "setting": "S. aureus strain DK825; 200 μM vs untreated control", "value": 0.55, "unit": "fold"}, {"measurement": "expression of exfoliative toxin, Down-regulated", "setting": "S. aureus strain DK825; 200 μM vs untreated control", "value": 0.52, "unit": "fold"}, {"measurement": "expression of fbnA (fibrinogen binding), Down-regulated", "setting": "S. aureus strain DK825; 200 μM vs untreated control", "value": 0.66, "unit": "fold"}, {"measurement": "expression of fnbB (fibronectin binding), Down-regulated", "setting": "S. aureus strain DK825; 200 μM vs untreated control", "value": 0.47, "unit": "fold"}, {"measurement": "expression of icaR (intercellular adhesin), Down-regulated", "setting": "S. aureus strain DK825; 200 μM vs untreated control", "value": 0.62, "unit": "fold"}, {"measurement": "expression of rsbW (anti-sigmaB), Up-regulated", "setting": "S. aureus strain DK825; 200 μM vs untreated control", "value": 4.5, "unit": "fold"}, {"measurement": "expression of saeR (response regulator), Up-regulated", "setting": "S. aureus strain DK825; 200 μM vs untreated control", "value": 2.5, "unit": "fold"}, {"measurement": "expression of saeS (histidine kinase), Up-regulated", "setting": "S. aureus strain DK825; 200 μM vs untreated control", "value": 1.5, "unit": "fold"}, {"measurement": "expression of vacuolating cytotoxin, Down-regulated", "setting": "S. aureus strain DK825; 200 μM vs untreated control", "value": 0.56, "unit": "fold"}, {"measurement": "concentrations relatively noncytotoxic to HeLa cells", "setting": "HeLa cells", "value": "< 400", "unit": "µM"}, {"measurement": "effect on HeLa cell morphology", "setting": "HeLa cells; 0-, 25-, 50-, 100-, 200- and 400 μM, 12-, 24- and 48 h", "value": "no obvious visible effect"}, {"measurement": "changes in HeLa cell morphology", "setting": "HeLa cells; 400 μM, 48 h exposure", "value": "morphological changes"}, {"measurement": "changes in HeLa cell morphology", "setting": "HeLa cells; up to 400 μM, 24 h exposure", "value": "did not cause any obvious changes in cell morphology"}, {"measurement": "final cell count", "setting": "S. aureus DK825 [1]; 200 μM, 24 h static culture, no difference to untreated", "value": "6×10^8 CFU/ml"}, {"measurement": "effect on growth rate", "setting": "S. aureus DK825 [1]; 200 μM, hourly examination up to 8 h", "value": "no obvious effect"}, {"measurement": "inhibition of cell viability", "setting": "S. aureus DK825 [1]; as recalled in Example 5 from Example 3", "value": "approximately 1 log"}, {"measurement": "stability in relatively strong alkali (cellulose activating activity)", "setting": "[2]", "value": "labile"}, {"measurement": "effect on biofilm formation", "setting": "V. cholerae N16961; N16961 wildtype, 24 h static, LB, dose-dependent", "value": "increase biofilm formation"}, {"measurement": "effect on biofilm formation", "setting": "V. cholerae N16961; RocS mutant", "value": "increased biofilm forming activity"}, {"measurement": "effect on biofilm formation", "setting": "Salmonela enteritidis", "value": "induce or enhance biofilm formation"}, {"measurement": "reduction of further biofilm development", "setting": "S. aureus DK825 [3]", "value": "~75", "unit": "%"}, {"measurement": "lethality", "setting": "CD-1 mice", "value": "no lethal effects were observed"}]}
